Legend:
[1] = Antioxidant activity assessed as trolox equivalent of ORAC radical scavenging activity by ORAC assay; type: functional
[2] = target: Cholinesterase (Homo sapiens) (UniProt P06276); assay: Inhibition of human BChE at 800 uM using butyrylthiocholine iodide as substrate incubated for 10 mins by Ellman's method
[3] = target: Cholesterol 24-hydroxylase (Homo sapiens, UniProt Q9Y6A2); assay: Inhibition of CYP46A1 (unknown origin); type: ADME
[4] = target: Sodium-dependent serotonin transporter (Rattus norvegicus, UniProt P31652); assay: Displacement of [3H]-5HT from rat SERT expressed in CHO cells incubated for 20 mins by liquid scintillation analysis; type: cell-based
[5] = Inhibition of 5HT uptake in Sprague-Dawley rat brain Synaptosome; type: subcellular
[6] = system: SARS-CoV-2; assay: Antiviral activity against SARS-CoV-2; type: functional, Severe acute respiratory syndrome coronavirus 2

Cholesterol 24-hydroxylase, sequence (Q9Y6A2 whole entry): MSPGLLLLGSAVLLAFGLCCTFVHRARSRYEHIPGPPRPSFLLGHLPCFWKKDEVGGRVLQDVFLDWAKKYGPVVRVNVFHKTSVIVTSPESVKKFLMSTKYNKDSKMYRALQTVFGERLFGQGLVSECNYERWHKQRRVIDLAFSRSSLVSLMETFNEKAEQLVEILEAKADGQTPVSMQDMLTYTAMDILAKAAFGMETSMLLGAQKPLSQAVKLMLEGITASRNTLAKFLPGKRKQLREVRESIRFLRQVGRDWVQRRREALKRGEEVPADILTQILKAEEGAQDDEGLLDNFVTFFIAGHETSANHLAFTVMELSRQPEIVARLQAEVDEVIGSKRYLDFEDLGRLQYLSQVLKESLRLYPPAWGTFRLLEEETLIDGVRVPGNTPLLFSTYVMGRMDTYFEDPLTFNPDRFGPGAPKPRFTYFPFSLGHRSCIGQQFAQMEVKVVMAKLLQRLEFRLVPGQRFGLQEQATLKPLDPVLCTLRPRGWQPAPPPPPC
Cholinesterase (Homo sapiens), sequence (P06276 whole entry): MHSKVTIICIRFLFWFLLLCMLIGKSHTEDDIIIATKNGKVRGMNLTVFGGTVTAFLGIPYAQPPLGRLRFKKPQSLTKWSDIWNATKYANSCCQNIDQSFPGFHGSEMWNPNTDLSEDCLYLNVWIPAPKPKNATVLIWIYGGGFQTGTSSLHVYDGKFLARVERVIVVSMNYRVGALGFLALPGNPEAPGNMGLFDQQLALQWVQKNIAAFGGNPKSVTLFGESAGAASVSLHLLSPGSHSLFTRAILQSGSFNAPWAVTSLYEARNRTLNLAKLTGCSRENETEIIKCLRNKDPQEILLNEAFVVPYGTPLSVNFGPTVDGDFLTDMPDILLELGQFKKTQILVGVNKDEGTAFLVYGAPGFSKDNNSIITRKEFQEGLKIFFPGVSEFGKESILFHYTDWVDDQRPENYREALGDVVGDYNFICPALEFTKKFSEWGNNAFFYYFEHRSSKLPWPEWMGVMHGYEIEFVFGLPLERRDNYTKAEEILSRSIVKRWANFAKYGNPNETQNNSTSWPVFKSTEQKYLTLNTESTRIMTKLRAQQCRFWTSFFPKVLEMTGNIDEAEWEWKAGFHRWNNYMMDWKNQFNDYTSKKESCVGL
Sodium-dependent serotonin transporter, sequence (P31652 whole entry): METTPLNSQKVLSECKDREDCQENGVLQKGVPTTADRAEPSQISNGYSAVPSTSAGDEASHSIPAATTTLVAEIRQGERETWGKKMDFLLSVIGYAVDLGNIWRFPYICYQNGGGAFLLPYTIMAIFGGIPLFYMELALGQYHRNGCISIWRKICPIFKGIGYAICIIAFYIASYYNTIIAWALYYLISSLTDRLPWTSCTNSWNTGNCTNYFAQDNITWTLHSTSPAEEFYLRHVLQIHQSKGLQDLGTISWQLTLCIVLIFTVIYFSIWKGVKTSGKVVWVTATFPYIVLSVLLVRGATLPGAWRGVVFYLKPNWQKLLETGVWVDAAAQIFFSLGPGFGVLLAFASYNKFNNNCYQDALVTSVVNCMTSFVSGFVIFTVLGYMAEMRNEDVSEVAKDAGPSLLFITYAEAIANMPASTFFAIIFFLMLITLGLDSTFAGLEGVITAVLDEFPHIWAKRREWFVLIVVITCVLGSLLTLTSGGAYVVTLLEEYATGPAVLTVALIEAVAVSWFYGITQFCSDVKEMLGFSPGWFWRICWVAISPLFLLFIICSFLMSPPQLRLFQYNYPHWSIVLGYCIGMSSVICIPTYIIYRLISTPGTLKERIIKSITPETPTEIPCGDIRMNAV

For `O=C1CCc2cc(O)c(O)cc2[C@@H](c2ccc(O)c(O)c2)CC(=O)NCCCCNCCCN1`, which Activity [1] is on record?
Its Activity is 2.68 µM.

What about the inhibition [2] of the same compound?
The inhibition was 37.8%.

For `O=C(/C=C/c1ccc(O)c(O)c1)NCCCNCCCCNC(=O)CCc1ccc(O[C@@H]2O[C@H](CO)[C@@H](O)[C@H](O)[C@H]2O)c(O)c1`, which Ki [3] is on record?
The Ki was 258 nM.

With `O=C1CCc2cc(O)c(O)cc2[C@H](c2ccc(O)c(O)c2)CC(=O)NCCCCNCCCN1` as the compound, how does the Activity [1] read?
The Activity was 2.37 µM.

What about the inhibition [2] of the same compound?
The inhibition was 18.1%.

Which Ki [3] does the source give for `O=C(/C=C/c1ccc(O)c(O[C@@H]2O[C@H](CO)[C@@H](O)[C@H](O)[C@H]2O)c1)NCCCNCCCCNC(=O)CCc1ccc(O)c(O)c1` here?
The Ki was 12.9 nM.

For `O=C(/C=C/c1ccc(O)cc1)NCCCCN(CCCNC(=O)/C=C/c1ccc(O)cc1)C(=O)/C=C\c1ccc(O)cc1`, which IC50 [4] is on record?
The IC50 was 740 nM.

And the IC50 [5]?
Its IC50 is 1070 nM.

With `NCCCCNCCCN` [SPERMIDINE] as the compound, how does the “inhibition (INH)” value [6] read?
Its value is 85%.

For `O=C(/C=C/c1ccc(O[C@@H]2O[C@H](CO)[C@@H](O)[C@H](O)[C@H]2O)c(O)c1)NCCCNCCCCNC(=O)CCc1ccc(O)c(O)c1`, which Ki [3] is on record?
The Ki was 106 nM.
